Where a SMILES comes first, the peptide text is derived from it.
Assay: Transmission electron microscope (negative staining) of peptide assemblies
Conditions: TEM, negative staining with uranyl acetate, 120 kV; line of the table gives 30 mM
Protocol: We used the negative staining technique to observe the morphologies formed by peptides. A micropipette was used to load 10 μL of sample solution to a carbon-coated copper grid, and we used a piece of filter paper to remove the excess solution. After rinsing the grid with the deionized water, we used uranyl acetate to stain the sample for 1 minute and then rinsed the grid with deionized water again.

Structure (SMILES)	Morphology
CC(C)C[C@H](N)C(=O)N[C@@H](Cc1c[nH]c2ccccc12)C(=O)N[C@@H](Cc1ccccc1)C(=O)N[C@@H](Cc1ccccc1)C(=O)O [LWFF] (H-LWFF-OH)	hybrid(sheet+fibre)

Same assay, conditions: TEM, negative staining with uranyl acetate, 120 kV; line of the table gives 60 mM

Structure (SMILES)	Morphology
CC[C@H](C)[C@H](NC(=O)[C@@H](NC(=O)[C@@H](NC(=O)[C@@H](N)Cc1c[nH]c2ccccc12)C(C)C)[C@@H](C)CC)C(=O)O [WVII] (H-WVII-OH)	fibre

Same assay, conditions: TEM, negative staining with uranyl acetate, 120 kV; line of the table gives 120 mM

Structure (SMILES)	Morphology
CC(C)[C@H](N)C(=O)N[C@@H](CO)C(=O)N[C@@H](Cc1c[nH]c2ccccc12)C(=O)N[C@@H](Cc1ccc(O)cc1)C(=O)O [VSWY] (H-VSWY-OH)	particle
CC(C)[C@H](NC(=O)[C@H](Cc1c[nH]c2ccccc12)NC(=O)[C@@H](N)CCCNC(=N)N)C(=O)N[C@@H](Cc1ccccc1)C(=O)O [RWVF] (H-RWVF-OH)	aggregates
N[C@@H](Cc1c[nH]cn1)C(=O)N[C@@H](Cc1c[nH]cn1)C(=O)N[C@@H](Cc1c[nH]cn1)C(=O)N[C@@H](Cc1c[nH]cn1)C(=O)O [HHHH] (H-HHHH-OH)	aggregates
C[C@H](NC(=O)[C@@H](N)Cc1ccccc1)C(=O)N[C@@H](Cc1ccccc1)C(=O)N1CCC[C@H]1C(=O)O [FAFP] (H-FAFP-OH)	particle
CSCC[C@H](NC(=O)[C@@H](N)Cc1ccccc1)C(=O)N[C@@H](Cc1ccc(O)cc1)C(=O)N[C@@H](CO)C(=O)O [FMYS] (H-FMYS-OH)	aggregates
N[C@@H](Cc1ccc(O)cc1)C(=O)N[C@@H](Cc1ccc(O)cc1)C(=O)N[C@@H](Cc1ccc(O)cc1)C(=O)N[C@@H](Cc1ccc(O)cc1)C(=O)O [YYYY] (H-YYYY-OH)	aggregates
CC[C@H](C)[C@H](N)C(=O)N[C@@H](Cc1c[nH]c2ccccc12)C(=O)N[C@H](C(=O)N[C@H](C(=O)O)[C@@H](C)CC)[C@@H](C)CC [IWII] (H-IWII-OH)	aggregates
NCCCC[C@H](NC(=O)[C@H](CCCCN)NC(=O)[C@H](CCC(=O)O)NC(=O)[C@@H](N)CCC(=O)O)C(=O)O [EEKK] (H-EEKK-OH)	blank
CC(C)C[C@H](NC(=O)[C@@H](N)C(C)C)C(=O)N[C@H](C(=O)N[C@H](C(=O)O)C(C)C)C(C)C [VLVV] (H-VLVV-OH)	sheet

Same assay, conditions: aqueous solution or hydrogel; negative staining

Structure (SMILES)	morphology by TEM (in words)
CC(C)[C@H](NC(=O)[C@H](Cc1c[nH]c2ccccc12)NC(=O)[C@@H](N)CCCNC(=N)N)C(=O)N[C@@H](Cc1ccccc1)C(=O)O [RWVF] (H-RWVF-OH)	aggregates with different sizes

Assay: Peptide hydrogel formation, vial-inverting method
Type: physicochemical
Parameters: key to EXP / GELATION: 0: no hydrogel; 1: hydrogel
Conditions: 30 mM peptide in ultrapure water; pH adjusted to 6.5-8.5 with 1 N NaOH, ultrasonication, standing 48 h; vial-inverting method; concentration raised 30/60/90/120 mM until gelation
Protocol: After validating the efficiency of APHC in predicting tetrapeptide hydrogels, we detailed the phase state of 165 synthesized tetrapeptides and the observed assembly behavior in an aqueous solution.
This work defines hydrogel formation as a self-supporting, non-flowing mixture of water and hydrogelator by the vial-inverting method. All purified tetrapeptides were dissolved in ultrapure water (to form a 30 mM solution initially), followed by the stepwise addition of 1 N NaOH solution to adjust the overall aqueous pH to 6.5–8.5. Meanwhile, a short-term ultrasonication treatment was applied after each pH adjustment to facilitate peptide solubilization and speed up peptide self-assembly. […] The mixture was allowed to stand in for another 48 h for complete hydrogelation. Upon the absence of gelation phenomenon during the aforementioned loops, we increased the peptide concentration (60 mM, 90 mM, and 120 mM were selected) and re-started such gelation operation loop to explore their gelation feasibility.

Structure (SMILES)	State
CC(C)C[C@H](N)C(=O)N[C@@H](Cc1c[nH]c2ccccc12)C(=O)N[C@@H](Cc1ccccc1)C(=O)N[C@@H](Cc1ccccc1)C(=O)O [LWFF] (H-LWFF-OH)	gel

Same assay, conditions: 60 mM peptide in ultrapure water; pH 6.5-8.5 (1 N NaOH), ultrasonication, standing 48 h; vial-inverting method; no gel at 30 mM

Structure (SMILES)	State
CC[C@H](C)[C@H](NC(=O)[C@@H](NC(=O)[C@@H](NC(=O)[C@@H](N)Cc1c[nH]c2ccccc12)C(C)C)[C@@H](C)CC)C(=O)O [WVII] (H-WVII-OH)	gel

Same assay, conditions: 120 mM peptide (highest tested) in ultrapure water; pH 6.5-8.5 (1 N NaOH), ultrasonication, standing 48 h; vial-inverting method; precipitate, sol, suspension = no gel

Structure (SMILES)	State
CC(C)[C@H](N)C(=O)N[C@@H](CO)C(=O)N[C@@H](Cc1c[nH]c2ccccc12)C(=O)N[C@@H](Cc1ccc(O)cc1)C(=O)O [VSWY] (H-VSWY-OH)	precipitate
CC(C)[C@H](NC(=O)[C@H](Cc1c[nH]c2ccccc12)NC(=O)[C@@H](N)CCCNC(=N)N)C(=O)N[C@@H](Cc1ccccc1)C(=O)O [RWVF] (H-RWVF-OH)	sol
N[C@@H](Cc1c[nH]cn1)C(=O)N[C@@H](Cc1c[nH]cn1)C(=O)N[C@@H](Cc1c[nH]cn1)C(=O)N[C@@H](Cc1c[nH]cn1)C(=O)O [HHHH] (H-HHHH-OH)	sol
C[C@H](NC(=O)[C@@H](N)Cc1ccccc1)C(=O)N[C@@H](Cc1ccccc1)C(=O)N1CCC[C@H]1C(=O)O [FAFP] (H-FAFP-OH)	suspension
CSCC[C@H](NC(=O)[C@@H](N)Cc1ccccc1)C(=O)N[C@@H](Cc1ccc(O)cc1)C(=O)N[C@@H](CO)C(=O)O [FMYS] (H-FMYS-OH)	sol
N[C@@H](Cc1ccc(O)cc1)C(=O)N[C@@H](Cc1ccc(O)cc1)C(=O)N[C@@H](Cc1ccc(O)cc1)C(=O)N[C@@H](Cc1ccc(O)cc1)C(=O)O [YYYY] (H-YYYY-OH)	sol
CC[C@H](C)[C@H](N)C(=O)N[C@@H](Cc1c[nH]c2ccccc12)C(=O)N[C@H](C(=O)N[C@H](C(=O)O)[C@@H](C)CC)[C@@H](C)CC [IWII] (H-IWII-OH)	suspension
NCCCC[C@H](NC(=O)[C@H](CCCCN)NC(=O)[C@H](CCC(=O)O)NC(=O)[C@@H](N)CCC(=O)O)C(=O)O [EEKK] (H-EEKK-OH)	sol
CC(C)C[C@H](NC(=O)[C@@H](N)C(C)C)C(=O)N[C@H](C(=O)N[C@H](C(=O)O)C(C)C)C(C)C [VLVV] (H-VLVV-OH)	gel

Same assay, conditions: concentration at which the state was recorded: lowest of 30, 60, 90, 120 mM that gave a gel; 120 mM for non-gelating peptides

Structure (SMILES)	Concentration
CC(C)[C@H](N)C(=O)N[C@@H](CO)C(=O)N[C@@H](Cc1c[nH]c2ccccc12)C(=O)N[C@@H](Cc1ccc(O)cc1)C(=O)O [VSWY] (H-VSWY-OH)	120 mM
CC(C)[C@H](NC(=O)[C@H](Cc1c[nH]c2ccccc12)NC(=O)[C@@H](N)CCCNC(=N)N)C(=O)N[C@@H](Cc1ccccc1)C(=O)O [RWVF] (H-RWVF-OH)	120 mM
N[C@@H](Cc1c[nH]cn1)C(=O)N[C@@H](Cc1c[nH]cn1)C(=O)N[C@@H](Cc1c[nH]cn1)C(=O)N[C@@H](Cc1c[nH]cn1)C(=O)O [HHHH] (H-HHHH-OH)	120 mM
C[C@H](NC(=O)[C@@H](N)Cc1ccccc1)C(=O)N[C@@H](Cc1ccccc1)C(=O)N1CCC[C@H]1C(=O)O [FAFP] (H-FAFP-OH)	120 mM
CSCC[C@H](NC(=O)[C@@H](N)Cc1ccccc1)C(=O)N[C@@H](Cc1ccc(O)cc1)C(=O)N[C@@H](CO)C(=O)O [FMYS] (H-FMYS-OH)	120 mM
CC(C)C[C@H](N)C(=O)N[C@@H](Cc1c[nH]c2ccccc12)C(=O)N[C@@H](Cc1ccccc1)C(=O)N[C@@H](Cc1ccccc1)C(=O)O [LWFF] (H-LWFF-OH)	30 mM
N[C@@H](Cc1ccc(O)cc1)C(=O)N[C@@H](Cc1ccc(O)cc1)C(=O)N[C@@H](Cc1ccc(O)cc1)C(=O)N[C@@H](Cc1ccc(O)cc1)C(=O)O [YYYY] (H-YYYY-OH)	120 mM
CC[C@H](C)[C@H](N)C(=O)N[C@@H](Cc1c[nH]c2ccccc12)C(=O)N[C@H](C(=O)N[C@H](C(=O)O)[C@@H](C)CC)[C@@H](C)CC [IWII] (H-IWII-OH)	120 mM
NCCCC[C@H](NC(=O)[C@H](CCCCN)NC(=O)[C@H](CCC(=O)O)NC(=O)[C@@H](N)CCC(=O)O)C(=O)O [EEKK] (H-EEKK-OH)	120 mM
CC[C@H](C)[C@H](NC(=O)[C@@H](NC(=O)[C@@H](NC(=O)[C@@H](N)Cc1c[nH]c2ccccc12)C(C)C)[C@@H](C)CC)C(=O)O [WVII] (H-WVII-OH)	60 mM
CC(C)C[C@H](NC(=O)[C@@H](N)C(C)C)C(=O)N[C@H](C(=O)N[C@H](C(=O)O)C(C)C)C(C)C [VLVV] (H-VLVV-OH)	120 mM

Same assay, conditions: experimental gelation result of the synthesized peptide

Structure (SMILES)	EXP
CC[C@H](C)[C@H](N)C(=O)N[C@@H](Cc1c[nH]c2ccccc12)C(=O)N[C@H](C(=O)N[C@H](C(=O)O)[C@@H](C)CC)[C@@H](C)CC [IWII] (H-IWII-OH)	0

Same assay, conditions: peptide concentration 30 mM; vial-inverting method; 1 = hydrogel, 0 = no hydrogel

Structure (SMILES)	GELATION
CC(C)C[C@H](N)C(=O)N[C@@H](Cc1c[nH]c2ccccc12)C(=O)N[C@@H](Cc1ccccc1)C(=O)N[C@@H](Cc1ccccc1)C(=O)O [LWFF] (H-LWFF-OH)	1

Same assay, conditions: peptide concentration 60 mM; vial-inverting method; 1 = hydrogel, 0 = no hydrogel

Structure (SMILES)	GELATION
CC[C@H](C)[C@H](NC(=O)[C@@H](NC(=O)[C@@H](NC(=O)[C@@H](N)Cc1c[nH]c2ccccc12)C(C)C)[C@@H](C)CC)C(=O)O [WVII] (H-WVII-OH)	1

Same assay, conditions: peptide concentration 120 mM; vial-inverting method; 1 = hydrogel, 0 = no hydrogel

Structure (SMILES)	GELATION
CC(C)[C@H](N)C(=O)N[C@@H](CO)C(=O)N[C@@H](Cc1c[nH]c2ccccc12)C(=O)N[C@@H](Cc1ccc(O)cc1)C(=O)O [VSWY] (H-VSWY-OH)	0
CC(C)[C@H](NC(=O)[C@H](Cc1c[nH]c2ccccc12)NC(=O)[C@@H](N)CCCNC(=N)N)C(=O)N[C@@H](Cc1ccccc1)C(=O)O [RWVF] (H-RWVF-OH)	0
N[C@@H](Cc1c[nH]cn1)C(=O)N[C@@H](Cc1c[nH]cn1)C(=O)N[C@@H](Cc1c[nH]cn1)C(=O)N[C@@H](Cc1c[nH]cn1)C(=O)O [HHHH] (H-HHHH-OH)	0
C[C@H](NC(=O)[C@@H](N)Cc1ccccc1)C(=O)N[C@@H](Cc1ccccc1)C(=O)N1CCC[C@H]1C(=O)O [FAFP] (H-FAFP-OH)	0
CSCC[C@H](NC(=O)[C@@H](N)Cc1ccccc1)C(=O)N[C@@H](Cc1ccc(O)cc1)C(=O)N[C@@H](CO)C(=O)O [FMYS] (H-FMYS-OH)	0
N[C@@H](Cc1ccc(O)cc1)C(=O)N[C@@H](Cc1ccc(O)cc1)C(=O)N[C@@H](Cc1ccc(O)cc1)C(=O)N[C@@H](Cc1ccc(O)cc1)C(=O)O [YYYY] (H-YYYY-OH)	0
CC[C@H](C)[C@H](N)C(=O)N[C@@H](Cc1c[nH]c2ccccc12)C(=O)N[C@H](C(=O)N[C@H](C(=O)O)[C@@H](C)CC)[C@@H](C)CC [IWII] (H-IWII-OH)	0
NCCCC[C@H](NC(=O)[C@H](CCCCN)NC(=O)[C@H](CCC(=O)O)NC(=O)[C@@H](N)CCC(=O)O)C(=O)O [EEKK] (H-EEKK-OH)	0
CC(C)C[C@H](NC(=O)[C@@H](N)C(C)C)C(=O)N[C@H](C(=O)N[C@H](C(=O)O)C(C)C)C(C)C [VLVV] (H-VLVV-OH)	1

Same assay, conditions: vial-inverting method; representative hydrogels pH between 7.0 to 7.5

Structure (SMILES)	hydrogel formation (in words)
CC[C@H](C)[C@H](NC(=O)[C@@H](NC(=O)[C@@H](NC(=O)[C@@H](N)Cc1c[nH]c2ccccc12)C(C)C)[C@@H](C)CC)C(=O)O [WVII] (H-WVII-OH)	can form hydrogel

From PMC10313671, “Accelerating the prediction and discovery of peptide hydrogels with human-in-the-loop” (Nature Communications, 2023)
